Measurements as given in PubChem BioAssay AID248 (DTP/NCI, 2004).
Values joined by “and” are separate entries in the source; they are usually repeats but may differ in a detail not shown here. Equal values may be shown once. Toxic doses and inconclusive results are not listed.

Tested on: L1210 leukemia ip in BDF1 mice, survival T/C
Assay: NCI In Vivo Anticancer Drug Screen. Data for tumor model L1210 Leukemia (intraperitoneal) in B6D2F1 (BDF1) mice
Conditions: endpoint: mean survival time, higher = longer survival
Summary of the method: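 Transplanted-tumor mice were given test agent; controls received vehicle only. Survival readings from the two groups were divided (treated over control).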

With NC(CSC(c1ccccc1)(c1ccccc1)c1ccccc1)C(=O)O (stereo not given) the T/C (dose: 1.0 mg/kg/injection, schedule: Q01DX Z (ip), vehicle: carboxymethylcellulose (CMC)) was 97 % of control and 102 % of control, the T/C (dose: 1.0 mg/kg/injection, schedule: Q01DX Z (ip), vehicle: other) was 109 % of control and the T/C (dose: 1.0 mg/kg/injection, schedule: Q01DX Z (ip), vehicle: saline) was 109 % of control. The T/C (dose: 1.95 mg/kg/injection, schedule: Q03HX006 (iv), vehicle: clinical formulation) was 106 % of control, the T/C (dose: 3.9 mg/kg/injection, schedule: Q03HX006 (iv), vehicle: clinical formulation) was 101 % of control and the T/C (dose: 4.0 mg/kg/injection, schedule: Q03HX024 (oral), vehicle: water) was 107 % of control. The T/C (dose: 4.1 mg/kg/injection, schedule: Q03HX024 (ip), vehicle: clinical formulation) was 107 % of control, the T/C (dose: 4.1 mg/kg/injection, schedule: Q03HX024 (ip), vehicle: saline) was 114 % of control and the T/C (dose: 4.1 mg/kg/injection, schedule: Q03HX024 (ip), vehicle: water) was 111 % of control. The T/C (dose: 4.4 mg/kg/injection, schedule: Q03HX024 (ip), vehicle: water) was 106 % of control, the T/C (dose: 5.0 mg/kg/injection, schedule: Q01DX Z (ip), vehicle: carboxymethylcellulose (CMC)) was 108 % of control and 123 % of control and the T/C (dose: 5.0 mg/kg/injection, schedule: Q01DX Z (ip), vehicle: other) was 115 % of control. The T/C (dose: 5.0 mg/kg/injection, schedule: Q01DX Z (ip), vehicle: saline) was 117 % of control, the T/C (dose: 5.4 mg/kg/injection, schedule: Q03HX024 (ip), vehicle: saline) was 111 % of control and the T/C (dose: 6.0 mg/kg/injection, schedule: Q03HX024 (oral), vehicle: water) was 118 % of control. The T/C (dose: 6.25 mg/kg/injection, schedule: Q01DX015 (oral), vehicle: saline) was 108 % of control, the T/C (dose: 6.25 mg/kg/injection, schedule: Q01DX015 (sc), vehicle: saline) was 105 % of control and the T/C (dose: 6.6 mg/kg/injection, schedule: Q03HX024 (ip), vehicle: water) was 124 % of control. The T/C (dose: 7.2 mg/kg/injection, schedule: Q03HX024 (ip), vehicle: clinical formulation) was 124 % of control, the T/C (dose: 7.81 mg/kg/injection, schedule: Q03HX006 (iv), vehicle: clinical formulation) was 103 % of control and the T/C (dose: 7.81 mg/kg/injection, schedule: Q03HX012 (ip), vehicle: clinical formulation) was 108 % of control. For the same molecule, the T/C (dose: 7.81 mg/kg/injection, schedule: Q03HX012 (ip), vehicle: water) was 121 % of control, the T/C (dose: 8.75 mg/kg/injection, schedule: Q03HX008 (ip), vehicle: other) was 113 % of control and the T/C (dose: 9.0 mg/kg/injection, schedule: Q03HX024 (oral), vehicle: clinical formulation) was 105 % of control. For the same molecule, the T/C (dose: 9.0 mg/kg/injection, schedule: Q03HX024 (oral), vehicle: saline) was 105 % of control, the T/C (dose: 9.0 mg/kg/injection, schedule: Q03HX024 (oral), vehicle: water) was 115 % of control and the T/C (dose: 10.0 mg/kg/injection, schedule: Q01DX Z (ip), vehicle: carboxymethylcellulose (CMC)) was 119 % of control. For the same molecule, the T/C (dose: 12.5 mg/kg/injection, schedule: Q01DX009 (ip), vehicle: clinical formulation) was 116 % of control, the T/C (dose: 12.5 mg/kg/injection, schedule: Q01DX009 (ip), vehicle: other) was 123 % of control and the T/C (dose: 12.5 mg/kg/injection, schedule: Q01DX009 (ip), vehicle: water) was 116 % of control. For the same molecule, the T/C (dose: 12.5 mg/kg/injection, schedule: Q01DX015 (ip), vehicle: saline) was 151 % of control, the T/C (dose: 12.5 mg/kg/injection, schedule: Q01DX015 (oral), vehicle: saline) was 114 % of control and the T/C (dose: 12.75 mg/kg/injection, schedule: Q03HX024 (ip), vehicle: water) was 119 % of control. The T/C (dose: 14.0 mg/kg/injection, schedule: Q03HX024 (oral), vehicle: clinical formulation) was 122 % of control, the T/C (dose: 15.62 mg/kg/injection, schedule: Q03HX006 (iv), vehicle: clinical formulation) was 103 % of control and the T/C (dose: 15.62 mg/kg/injection, schedule: Q03HX012 (ip), vehicle: water) was 152 % of control. For the same molecule, the T/C (dose: 16.87 mg/kg/injection, schedule: Q03HX024 (ip), vehicle: other) was 151 % of control, the T/C (dose: 17.0 mg/kg/injection, schedule: Q01DX009 (ip), vehicle: other) was 109 % of control and the T/C (dose: 17.5 mg/kg/injection, schedule: Q01DX005 (ip), vehicle: other) was 114 % of control. For the same molecule, the T/C (dose: 17.5 mg/kg/injection, schedule: Q01DX009 (ip), vehicle: other) was 113 % of control, the T/C (dose: 17.5 mg/kg/injection, schedule: Q## X006 (ip), vehicle: other) was 116 % of control and the T/C (dose: 22.5 mg/kg/injection, schedule: Q03HX024 (ip), vehicle: water) was 92 % of control. The T/C (dose: 25.0 mg/kg/injection, schedule: Q01DX009 (ip), vehicle: clinical formulation) was 117 % of control, the T/C (dose: 25.0 mg/kg/injection, schedule: Q01DX009 (ip), vehicle: other) was 119 % of control and the T/C (dose: 25.0 mg/kg/injection, schedule: Q01DX009 (ip), vehicle: water) was 110 % of control. The T/C (dose: 27.0 mg/kg/injection, schedule: Q03HX024 (oral), vehicle: clinical formulation) was 152 % of control, the T/C (dose: 31.25 mg/kg/injection, schedule: Q03HX006 (iv), vehicle: clinical formulation) was 116 % of control and the T/C (dose: 31.25 mg/kg/injection, schedule: Q03HX012 (ip), vehicle: clinical formulation) was 118 % of control. The T/C (dose: 31.25 mg/kg/injection, schedule: Q03HX012 (ip), vehicle: water) was 118 % of control, the T/C (dose: 35.0 mg/kg/injection, schedule: Q03HX008 (ip), vehicle: other) was 122 % of control and the T/C (dose: 35.0 mg/kg/injection, schedule: Q03HX024 (ip), vehicle: other) was 107 % of control. The T/C (dose: 35.0 mg/kg/injection, schedule: Q04DX003 (ip), vehicle: clinical formulation) was 96 % of control, the T/C (dose: 35.0 mg/kg/injection, schedule: Q04DX003 (ip), vehicle: other) was 113 % of control and the T/C (dose: 35.0 mg/kg/injection, schedule: Q## X006 (ip), vehicle: other) was 124 % of control. For the same molecule, the T/C (dose: 35.5 mg/kg/injection, schedule: Q01DX009 (ip), vehicle: other) was 107 % of control, the T/C (dose: 47.0 mg/kg/injection, schedule: Q04DX003 (ip), vehicle: other) was 119 % of control and the T/C (dose: 48.0 mg/kg/injection, schedule: Q03HX024 (oral), vehicle: clinical formulation) was 106 % of control. For the same molecule, the T/C (dose: 50.0 mg/kg/injection, schedule: Q01DX009 (oral), vehicle: other) was 123 % of control, the T/C (dose: 50.0 mg/kg/injection, schedule: Q01DX Z (ip), vehicle: carboxymethylcellulose (CMC)) was 102 % of control and the T/C (dose: 52.8 mg/kg/injection, schedule: Q03HX024 (ip), vehicle: clinical formulation) was 105 % of control. For the same molecule, the T/C (dose: 52.8 mg/kg/injection, schedule: Q04DX003 (ip), vehicle: clinical formulation) was 95 % of control and 105 % of control, the T/C (dose: 70.0 mg/kg/injection, schedule: Q01DX001 (ip), vehicle: other) was 121 % of control and the T/C (dose: 70.0 mg/kg/injection, schedule: Q03HX008 (ip), vehicle: other) was 101 % of control. For the same molecule, the T/C (dose: 70.0 mg/kg/injection, schedule: Q04DX003 (ip), vehicle: clinical formulation) was 107 % of control, the T/C (dose: 70.0 mg/kg/injection, schedule: Q## X006 (ip), vehicle: other) was 121 % of control and the T/C (dose: 78.0 mg/kg/injection, schedule: Q02DX005 (ip), vehicle: other) was 152 % of control. The T/C (dose: 78.0 mg/kg/injection, schedule: Q04DX003 (ip), vehicle: other) was 114 % of control, the T/C (dose: 78.0 mg/kg/injection, schedule: Q08DX002 (ip), vehicle: other) was 110 % of control and the T/C (dose: 80.0 mg/kg/injection, schedule: Q03HX024 (ip), vehicle: clinical formulation) was 115 % of control. The T/C (dose: 80.0 mg/kg/injection, schedule: Q04DX003 (ip), vehicle: clinical formulation) was 94 % of control and 108 % of control, the T/C (dose: 100.0 mg/kg/injection, schedule: Q01DX009 (ip), vehicle: saline with Tween-80) was 108 % of control and the T/C (dose: 100.0 mg/kg/injection, schedule: Q01DX009 (oral), vehicle: other) was 118 % of control. The T/C (dose: 100.0 mg/kg/injection, schedule: Q01DX Z (ip), vehicle: other) was 115 % of control, the T/C (dose: 100.0 mg/kg/injection, schedule: Q01DX Z (ip), vehicle: saline) was 150 % of control and the T/C (dose: 100.0 mg/kg/injection, schedule: Q02DX005 (oral), vehicle: other) was 121 % of control. For the same molecule, the T/C (dose: 112.0 mg/kg/injection, schedule: Q03HX024 (oral), vehicle: clinical formulation) was 96 % of control, the T/C (dose: 112.0 mg/kg/injection, schedule: Q03HX024 (oral), vehicle: saline) was 103 % of control and the T/C (dose: 112.0 mg/kg/injection, schedule: Q04DX003 (ip), vehicle: clinical formulation) was 122 % of control. The T/C (dose: 125.0 mg/kg/injection, schedule: Q02DX009 (ip), vehicle: other) was 97 % of control, the T/C (dose: 130.0 mg/kg/injection, schedule: Q08DX002 (ip), vehicle: other) was 124 % of control and the T/C (dose: 140.0 mg/kg/injection, schedule: Q01DX001 (ip), vehicle: other) was 118 % of control. For the same molecule, the T/C (dose: 150.0 mg/kg/injection, schedule: Q01DX Z (ip), vehicle: saline) was 109 % of control, the T/C (dose: 160.0 mg/kg/injection, schedule: Q03HX024 (ip), vehicle: saline) was 110 % of control and the T/C (dose: 240.0 mg/kg/injection, schedule: Q03HX024 (ip), vehicle: saline) was 92 % of control. The T/C (dose: 250.0 mg/kg/injection, schedule: Q02DX009 (ip), vehicle: other) was 103 % of control, the T/C (dose: 250.0 mg/kg/injection, schedule: Q02DX009 (oral), vehicle: other) was 121 % of control and the T/C (dose: 250.0 mg/kg/injection, schedule: Q04DX005 (oral), vehicle: other) was 121 % of control. The T/C (dose: 250.0 mg/kg/injection, schedule: Q08DX003 (oral), vehicle: other) was 111 % of control, the T/C (dose: 280.0 mg/kg/injection, schedule: Q01DX001 (ip), vehicle: other) was 107 % of control and the T/C (dose: 280.0 mg/kg/injection, schedule: Q04DX003 (ip), vehicle: saline) was 107 % of control. The T/C (dose: 400.0 mg/kg/injection, schedule: Q01DX009 (oral), vehicle: other) was 120 % of control, the T/C (dose: 500.0 mg/kg/injection, schedule: Q08DX003 (oral), vehicle: other) was 124 % of control and the T/C (dose: 800.0 mg/kg/injection, schedule: Q08DX002 (oral), vehicle: other) was 113 % of control. The T/C (dose: 1000.0 mg/kg/injection, schedule: Q02DX009 (oral), vehicle: other) was 112 % of control and the T/C (dose: 2000.0 mg/kg/injection, schedule: Q08DX003 (oral), vehicle: other) was 151 % of control.
